Measurements: paper doi:10.1101/2022.10.27.513961v1 (bioRxiv, 2022)
Where a SMILES comes first, the peptide text is derived from it. Bridges are numbered along the chain shown (N, C = ends).

Legend:
Assay type in all cases: cell-based
HT144 cells [1] = experiment: Microscopy during long-term treatment
WM164 cells [2] = experiment: Microscopy during long-term treatment
WM164 cells [3] = experiment: Co-treatment of dabrafenib with peptide, resazurin assay; settings: drug-naïve WM164, drug (50 nM) or peptide (at IC50) added alone, 72 h
WM164 cells [4] = experiment: Lipidome analysis, shotgun tandem MS of lipid extracts
HT144 cells [5] = experiment: Cytotoxicity, resazurin assay; settings: for IC50: Homo sapiens
WM164 cells [6] = experiment: Real-time cell analysis, xCELLigence impedance
WM164 cells [7] = experiment: Cytotoxicity, resazurin assay
HT144 cells [8] = experiment: Real-time cell analysis, xCELLigence impedance
WM164 cells [9] = experiment: Cell surface charge, zeta potential; settings: WM164 PDRCs (105 days with dabrafenib), mean ± SEM, n=3
HT144 cells [10] = experiment: Lipidome analysis, shotgun tandem MS of lipid extracts
HT144 cells [11] = experiment: Cell surface charge, zeta potential; settings: mean ± SEM, n=3
[12] = WM164, 15-30 days of dabrafenib
[13] = WM164, dabrafenib 30 days vs untreated
[14] = HT144, dabrafenib 30 days vs untreated

## CC[C@H](C)[C@@H]1NC(=O)CNC(=O)[C@H](CCCNC(=N)N)NC(=O)[C@H](Cc2ccc(O)cc2)NC(=O)[C@@H]2CSSC[C@H](NC1=O)C(=O)N[C@@H](Cc1ccc(O)cc1)C(=O)N[C@@H](CCCNC(=N)N)C(=O)N[C@@H](CCCNC(=N)N)C(=O)N[C@H]1CSSC[C@H](NC(=O)[C@H](Cc3c[nH]c4ccccc34)NC(=O)[C@H](CCCCN)NC(=O)CNC(=O)[C@H](CCCNC(=N)N)NC1=O)C(=O)N[C@@H](Cc1ccccc1)C(=O)N[C@@H](CCCNC(=N)N)C(=O)N[C@@H](C(C)C)C(=O)N2 [cTI, cyclic tachyplesin I] (cyclo(CFRVCYRGICYRRCRGKW); disulfide 1-14, 5-10)
HT144 cells [1]; HT144, treatment with cTI for 100 days
  cell morphology: remained unchanged
WM164 cells [2]; WM164, after 2 µM cTI for one week
  cell morphology: more elongated and less dendritic
WM164 cells [3]
  cell death: ~ 50%
WM164 cells [4]; WM164, 1µM cTI_15d
  PC 30:0, Mean nmol/M cells: 0.78 nmol/M cells
  PC 30:1, Mean nmol/M cells: 0.42 nmol/M cells
  PC 32:0, Mean nmol/M cells: 0.50 nmol/M cells
  PC 32:1, Mean nmol/M cells: 3.15 nmol/M cells
  PC 32:2, Mean nmol/M cells: 0.38 nmol/M cells
  PC 34:1, Mean nmol/M cells: 5.61 nmol/M cells
  PC 34:2, Mean nmol/M cells: 2.35 nmol/M cells
  PC 36:1, Mean nmol/M cells: 0.86 nmol/M cells
  PC 36:2, Mean nmol/M cells: 3.56 nmol/M cells
  PE 32:1, Mean nmol/M cells: 0.21 nmol/M cells
  PE 34:1, Mean nmol/M cells: 0.89 nmol/M cells
  PE 34:2, Mean nmol/M cells: 0.71 nmol/M cells
  PE 36:1, Mean nmol/M cells: 0.75 nmol/M cells
  PE 36:2, Mean nmol/M cells: 1.48 nmol/M cells
  PE 36:3, Mean nmol/M cells: 0.19 nmol/M cells
  PE 38:4, Mean nmol/M cells: 0.27 nmol/M cells
  PE 38:5, Mean nmol/M cells: 0.26 nmol/M cells
  PE 40:6, Mean nmol/M cells: 0.16 nmol/M cells
  PI 34:1, Mean nmol/M cells: 0.42 nmol/M cells
  PI 34:2, Mean nmol/M cells: 0.29 nmol/M cells
  PI 36:1, Mean nmol/M cells: 1.12 nmol/M cells
  PI 36:2, Mean nmol/M cells: 1.12 nmol/M cells
  PI 38:2, Mean nmol/M cells: 0.19 nmol/M cells
  PI 38:3, Mean nmol/M cells: 0.34 nmol/M cells
  PI 38:4, Mean nmol/M cells: 0.64 nmol/M cells
  PI 38:5, Mean nmol/M cells: 0.22 nmol/M cells
WM164 cells [4]; WM164, 2µM cTI_60d
  PC 30:0, Mean nmol/M cells: 0.51 nmol/M cells
  PC 30:1, Mean nmol/M cells: 0.27 nmol/M cells
  PC 32:0, Mean nmol/M cells: 0.34 nmol/M cells
  PC 32:1, Mean nmol/M cells: 1.93 nmol/M cells
  PC 32:2, Mean nmol/M cells: 0.26 nmol/M cells
  PC 34:1, Mean nmol/M cells: 4.19 nmol/M cells
  PC 34:2, Mean nmol/M cells: 1.64 nmol/M cells
  PC 36:1, Mean nmol/M cells: 0.82 nmol/M cells
  PC 36:2, Mean nmol/M cells: 2.77 nmol/M cells
  PE 32:1, Mean nmol/M cells: 0.16 nmol/M cells
  PE 34:1, Mean nmol/M cells: 0.68 nmol/M cells
  PE 34:2, Mean nmol/M cells: 0.71 nmol/M cells
  PE 36:1, Mean nmol/M cells: 0.78 nmol/M cells
  PE 36:2, Mean nmol/M cells: 1.83 nmol/M cells
  PE 36:3, Mean nmol/M cells: 0.19 nmol/M cells
  PE 38:4, Mean nmol/M cells: 0.28 nmol/M cells
  PE 38:5, Mean nmol/M cells: 0.27 nmol/M cells
  PE 40:6, Mean nmol/M cells: 0.17 nmol/M cells
  PI 34:1, Mean nmol/M cells: 0.25 nmol/M cells
  PI 34:2, Mean nmol/M cells: 0.17 nmol/M cells
  PI 36:1, Mean nmol/M cells: 0.80 nmol/M cells
  PI 36:2, Mean nmol/M cells: 0.73 nmol/M cells
  PI 38:2, Mean nmol/M cells: 0.18 nmol/M cells
  PI 38:3, Mean nmol/M cells: 0.26 nmol/M cells
  PI 38:4, Mean nmol/M cells: 0.46 nmol/M cells
  PI 38:5, Mean nmol/M cells: 0.12 nmol/M cells
WM164 cells [4]; WM164, 3µM cTI_100d
  PC 30:0, Mean nmol/M cells: 0.74 nmol/M cells
  PC 30:1, Mean nmol/M cells: 0.44 nmol/M cells
  PC 32:0, Mean nmol/M cells: 0.42 nmol/M cells
  PC 32:1, Mean nmol/M cells: 3.17 nmol/M cells
  PC 32:2, Mean nmol/M cells: 0.42 nmol/M cells
  PC 34:1, Mean nmol/M cells: 5.27 nmol/M cells
  PC 34:2, Mean nmol/M cells: 2.18 nmol/M cells
  PC 36:1, Mean nmol/M cells: 0.90 nmol/M cells
  PC 36:2, Mean nmol/M cells: 2.89 nmol/M cells
  PE 32:1, Mean nmol/M cells: 0.26 nmol/M cells
  PE 34:1, Mean nmol/M cells: 1.09 nmol/M cells
  PE 34:2, Mean nmol/M cells: 1.08 nmol/M cells
  PE 36:1, Mean nmol/M cells: 1.00 nmol/M cells
  PE 36:2, Mean nmol/M cells: 2.05 nmol/M cells
  PE 36:3, Mean nmol/M cells: 0.26 nmol/M cells
  PE 38:4, Mean nmol/M cells: 0.33 nmol/M cells
  PE 38:5, Mean nmol/M cells: 0.35 nmol/M cells
  PE 40:6, Mean nmol/M cells: 0.19 nmol/M cells
  PI 34:1, Mean nmol/M cells: 0.48 nmol/M cells
  PI 34:2, Mean nmol/M cells: 0.30 nmol/M cells
  PI 36:1, Mean nmol/M cells: 1.26 nmol/M cells
  PI 36:2, Mean nmol/M cells: 1.19 nmol/M cells
  PI 38:2, Mean nmol/M cells: 0.23 nmol/M cells
  PI 38:3, Mean nmol/M cells: 0.35 nmol/M cells
  PI 38:4, Mean nmol/M cells: 0.61 nmol/M cells
  PI 38:5, Mean nmol/M cells: 0.22 nmol/M cells
HT144 cells [5]; HT144, cTI 0.5 to 3 µM over 100 days
  development of resistance: did not develop resistance
WM164 cells [6]; 5 µM, 24 h
  reduction in impedance signal: ~50%
WM164 cells [6]; 10 µM
  time to drop in the impedance to ∼0: 2 to 3 h
WM164 cells [6]; 10^4 WM164 cells seeded for 24 h, 5 µM
  cell proliferation: ~50%
WM164 cells [7]; 5 x10^3 WM164 cells seeded for 24 h, 3 µM peptide, resazurin
  cell death: 50%
WM164 cells [7]; WM164, cTI 0.5 to 3 µM over 100 days
  development of resistance: did not develop resistance
HT144 cells [8]; 5 µM, 24 h
  reduction in impedance signal: ~50%
HT144 cells [8]; 10 µM
  time to drop in the impedance to ∼0: 2 to 3 h

## CC(C)(C)c1nc(-c2cccc(NS(=O)(=O)c3c(F)cccc3F)c2F)c(-c2ccnc(N)n2)s1 [dabrafenib, reference compound]
HT144 cells [1]; HT144, 100 nM dabrafenib
  time to death of drug-naïve cells: ≤ 48 h
WM164 cells [2]; WM164, 100 nM dabrafenib
  time to death of drug-naïve cells: ≤ 48 h
WM164 cells [3]
  cell death: ~ 50%
WM164 cells [4]; WM164, 100 nM dabrafenib 30 days (untreated 3)
  SM proportion: 11 mol%
WM164 cells [4]; [12]
  fold increase of PI 38:4: 3 fold
  fold increase of SM 36:1: 3 fold
WM164 cells [4]; WM164, 15-30 days of dabrafenib (before 8)
  SM 36:1 abundance: 26 mol%
WM164 cells [4]; WM164, 15-30 days of dabrafenib (before 18)
  PI 38:4 abundance: 55 mol%
WM164 cells [4]; WM164, dabrafenib 30 days (untreated 19)
  negatively charged lipids (PS+PI) proportion: 23 mol%
WM164 cells [4]; WM164, dabrafenib 30 days (untreated 78)
  zwitterionic PE and PC proportion: 66 mol%
WM164 cells [4]; [13]
  fold decrease in PE and PC: 0.8 fold
  fold increase in PS+PI: 1.2 fold
  fold increase in SM: 3.7 fold
HT144 cells [5]; HT-144, 72 h, HT144 PDRC (100 nM), resazurin three days after drug
  IC50: > 1000 nM
HT144 cells [5]; HT-144, Parental HT144 cells
  IC50: 22 nM
HT144 cells [5]; PDR HT144 cells, at 1µM
  toxicity: ~10%
WM164 cells [9]
  surface charge, zeta potential: −20.18 ± 0.95 mV
HT144 cells [10]; HT144, dabrafenib 30 days (untreated 5)
  SM proportion: 9 mol%
HT144 cells [10]; HT144, dabrafenib 30 days (untreated 15)
  PE proportion: 20 mol%
HT144 cells [10]; HT144, dabrafenib 30 days (untreated 59)
  PC proportion: 51 mol%
HT144 cells [10]; [14]
  fold decrease in PC: 0.9 fold
  fold increase in PE: 1.3 fold
  fold increase in SM: 1.8 fold
HT144 cells [11]; HT144 DTPs (30 days with dabrafenib)
  surface charge, zeta potential: −15.94 ± 0.59 mV
HT144 cells [11]; HT144 PDRCs (105 days with dabrafenib)
  surface charge, zeta potential: −17.7 ± 0.30 mV
WM164 cells [7]; Homo sapiens, WM164, Parental WM164 cells
  IC50: 44 nM
